# Test system: 817829-284-R-J1-PDC multi-cell spheroid viability
# Test: Anticancer human tumor 817829-284-R-J1-PDC patient-derived colon adenocarcinoma cell line growth inhibition [PI3K]
# Conditions: for IC50: curve of first compound; for viability, T/C: stronger effect = lower value
# Procedure, shortened: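 Spheroid viability read-out. Co-cultures contained the tumor line plus HUVEC and human MSCs. Each agent was paired with a PI3K inhibitor (inavolisib, alpelisib, duvelisib, copanlisib) across half-log dilutions starting at clinical Cmax, or at 10 microM when Cmax was unknown.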
# [1] = second compound 0.00316 µM, first compound 0.0316 µM
# [2] = second compound 0.00316 µM, first compound 0.1 µM
# [3] = second compound 0.00316 µM, first compound 0.316 µM
# [4] = second compound 0.00316 µM, first compound 1 µM
# [5] = second compound 0.00316 µM, first compound 3.16 µM
# [6] = second compound 0.00316 µM, first compound 10 µM
# [7] = second compound 0.01 µM, first compound 0.0316 µM
# [8] = second compound 0.01 µM, first compound 0.1 µM
# [9] = second compound 0.01 µM, first compound 0.316 µM
# [10] = second compound 0.01 µM, first compound 1 µM
# [11] = second compound 0.01 µM, first compound 3.16 µM
# [12] = second compound 0.01 µM, first compound 10 µM
# [13] = second compound 0.0316 µM, first compound 0.0316 µM
# [14] = second compound 0.0316 µM, first compound 0.1 µM
# [15] = second compound 0.0316 µM, first compound 0.316 µM
# [16] = second compound 0.0316 µM, first compound 1 µM
# [17] = second compound 0.0316 µM, first compound 3.16 µM
# [18] = second compound 0.0316 µM, first compound 10 µM
# [19] = second compound 0.1 µM, first compound 0.0316 µM
# [20] = second compound 0.1 µM, first compound 0.1 µM
# [21] = second compound 0.1 µM, first compound 0.316 µM
# [22] = second compound 0.1 µM, first compound 1 µM
# [23] = second compound 0.1 µM, first compound 3.16 µM
# [24] = second compound 0.1 µM, first compound 10 µM
# [25] = second compound 0.316 µM, first compound 0.0316 µM
# [26] = second compound 0.316 µM, first compound 0.1 µM
# [27] = second compound 0.316 µM, first compound 0.316 µM
# [28] = second compound 0.316 µM, first compound 1 µM
# [29] = second compound 0.316 µM, first compound 3.16 µM
# [30] = second compound 0.316 µM, first compound 10 µM
# [31] = second compound 1 µM, first compound 0.0316 µM
# [32] = second compound 1 µM, first compound 0.1 µM
# [33] = second compound 1 µM, first compound 0.316 µM
# [34] = second compound 1 µM, first compound 1 µM
# [35] = second compound 1 µM, first compound 3.16 µM
# [36] = second compound 1 µM, first compound 10 µM
# 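Also: spheroids exposed to agents for seven days before readout.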
# 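For viability, T/C in this document: percent of vehicle DMSO control viability which is 100%.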
smiles,measurement,setting,value
Cn1ncc(Cl)c1-c1cc(C(=O)NC(CN)Cc2cccc(F)c2)sc1Cl (centres undefined) + CC(Nc1ccc2c(c1)OCCn1cc(N3C(=O)OCC3C(F)F)nc1-2)C(N)=O,IC50,second compound 0.00316 µM,< 0.0316 µM
same,IC50,second compound 0.01 µM,0.106 µM
same,IC50,second compound 0.0316 µM,< 0.0316 µM
same,IC50,second compound 0.1 µM,0.0416 µM
same,IC50,second compound 0.316 µM,< 0.0316 µM
same,IC50,second compound 1 µM,< 0.0316 µM
same,"viability, T/C",[1],73.2%
same,"viability, T/C",[2],38.6%
same,"viability, T/C",[3],22.8%
same,"viability, T/C",[4],16.9%
same,"viability, T/C",[5],16.3%
same,"viability, T/C",[6],98.6%
same,"viability, T/C",[7],81.4%
same,"viability, T/C",[8],51%
same,"viability, T/C",[9],22%
same,"viability, T/C",[10],19.1%
same,"viability, T/C",[11],14.4%
same,"viability, T/C",[12],69%
same,"viability, T/C",[13],49.4%
same,"viability, T/C",[14],30.6%
same,"viability, T/C",[15],14.9%
same,"viability, T/C",[16],16.5%
same,"viability, T/C",[17],14.7%
same,"viability, T/C",[18],55.9%
same,"viability, T/C",[19],56.3%
same,"viability, T/C",[20],31.4%
same,"viability, T/C",[21],21%
same,"viability, T/C",[22],16.7%
same,"viability, T/C",[23],14%
same,"viability, T/C",[24],53.2%
same,"viability, T/C",[25],46.4%
same,"viability, T/C",[26],33.7%
same,"viability, T/C",[27],16.8%
same,"viability, T/C",[28],13.2%
same,"viability, T/C",[29],11.9%
same,"viability, T/C",[30],44.7%
same,"viability, T/C",[31],34.4%
same,"viability, T/C",[32],25.6%
same,"viability, T/C",[33],16.7%
same,"viability, T/C",[34],14.2%
same,"viability, T/C",[35],12.3%
same,"viability, T/C",[36],84.7%
Cn1nccc1Nc1nccc(-c2ccn(C(CO)c3ccc(Cl)c(F)c3)c(=O)c2)n1 (centres undefined) + CC(Nc1ccc2c(c1)OCCn1cc(N3C(=O)OCC3C(F)F)nc1-2)C(N)=O,IC50,second compound 0.00316 µM,6.06 µM
same,IC50,second compound 0.01 µM,4.63 µM
same,IC50,second compound 0.0316 µM,7.18 µM
same,IC50,second compound 0.1 µM,6.97 µM
same,IC50,second compound 0.316 µM,3.89 µM
same,IC50,second compound 1 µM,> 10 µM
same,"viability, T/C",[1],87.6%
same,"viability, T/C",[2],72.7%
same,"viability, T/C",[3],88.3%
same,"viability, T/C",[4],72.5%
same,"viability, T/C",[5],83.5%
same,"viability, T/C",[6],26.2%
same,"viability, T/C",[7],70%
same,"viability, T/C",[8],79.8%
same,"viability, T/C",[9],76.7%
same,"viability, T/C",[10],70.9%
same,"viability, T/C",[11],64.1%
same,"viability, T/C",[12],22.2%
same,"viability, T/C",[13],90.6%
same,"viability, T/C",[14],102%
same,"viability, T/C",[15],90.2%
same,"viability, T/C",[16],105%
same,"viability, T/C",[17],98.5%
same,"viability, T/C",[18],30.9%
same,"viability, T/C",[19],58.9%
same,"viability, T/C",[20],84.9%
same,"viability, T/C",[21],92.3%
same,"viability, T/C",[22],115%
same,"viability, T/C",[23],87%
same,"viability, T/C",[24],33%
same,"viability, T/C",[25],110%
same,"viability, T/C",[26],67.6%
same,"viability, T/C",[27],80.5%
same,"viability, T/C",[28],60.8%
same,"viability, T/C",[29],65.7%
same,"viability, T/C",[30],33.1%
same,"viability, T/C",[31],55.9%
same,"viability, T/C",[32],63.7%
same,"viability, T/C",[33],72.4%
same,"viability, T/C",[34],80.3%
same,"viability, T/C",[35],75.9%
same,"viability, T/C",[36],34.4%

# — PubChem BioAssay AID1963969 (Molecular Pharmacology Branch, DTP, NCI, 2024)
